The source of these data is patent EP4711377A1, “STEROID COMPOUND, PREPARATION METHOD THEREFOR, AND USE THEREOF” (Shujing Biopharma Co., Ltd, priority 2023, dated 2024).

One data set concerns the target GABAa receptor (α1β2γ2) (Homo sapiens, UniProt P14867+P47870). Kind of data set: in vitro GABAa receptor (α1β2γ2) cellular activity assay, manual whole-cell patch clamp, enhancement of currents induced by 1 µM GABA. It is filed as cell-based. The settings on record: CHO cells; for activation at 0.1 µM: read-out: Agonist ratio. On the procedure: The cells used in this experiment were derived from a CHO cell line that stably expressed normal GABAa receptor functions after transfection with human GABAa receptor α1, β2, and γ2 subunit cDNAs. The cell line was constructed by B'sys GmbH. The cells were cultured in a medium (purchased from Invitrogen) containing the following components: DMEM culture medium; 10% (v/v) inactivated fetal bovine serum; 5 µg/mL Puromycin; 250 µg/mL Hygromycin B; and 100 µg/mL Zeocin. The cells were grown in culture dishes containing the above medium and cultured in an incubator at 37 °C with 5% CO2. 12 h to 24 h before the electrophysiological experiment, the cells were transferred onto circular glass slides placed in culture dishes, and were grown under the same medium and culture conditions as above. The density of cells on each circular glass slide was required to meet the requirement that the overwhelming majority of cells were independent and individual.
In this experiment, a manual patch-clamp system HEKA EPC10 USB signal amplifier and digital conversion system (purchased from HEKA Electronics, Germany) were used for whole-cell current recording. The circular glass slides with surface-grown CHO GABAa cells (see the cell culture and requirement section above) were taken out from the culture dishes and then placed into an electrophysiological recording chamber under an inverted microscope. The recording chamber was continuously perfused with extracellular fluid (approximately 1-2 mL/min). In the experiment, the whole-cell current recording technique was employed to record chloride ion currents of GABAa channels. 1 µM GABA was used to activate chloride ion currents of GABAa channels on each cell as an initial control (the reason for using 1 µM GABA concentration was that: this concentration was an effective activation concentration for the GABAa ion channel agonist GABA on the cells used in this experiment, falling between 10% and 20%). Unless otherwise specified, the experiment was performed at conventional room temperature (about 25 °C), and only cells meeting the electrophysiological recording criteria were adopted. In the experiment, the cells were ruptured and sealed, and were clamped at -80 mV after entering a whole-cell state. 1 µM GABA acted on the cells through the drug perfusion system to induce chloride ion currents of GABAa channels; the action time was about 4 s, and the current magnitude was used as the initial control value. Subsequently, the cells were perfused and incubated with the test concentration compound for 3 min, and then a mixed solution of 1 µM GABA and the corresponding test concentration compound was applied to act on the cells to induce currents, so as to observe the enhancing effect of the test compound on the currents induced by 1 µM GABA. When the cell state stabilized, the test compound would be applied from low to high concentrations to act on the same cell. In the experiment, to avoid current reduction caused by desensitization of GABAa ion channels, the interval time for the test substance acting on the cells through the drug perfusion system was at least 180 s.
The experimental data were analyzed using data analysis software provided by HEKA Patchmaster, Microsoft Excel, and Graphpad Prism.

Data set [1] deals with mice with PTZ-induced convulsions. The data set can be described thus: in vivo efficacy experiment in PTZ-induced epilepsy mouse model. Particulars: for Survival rate: 60 min before PTZ 120 mg/kg s.c., 30 min observation; for Number of clonic seizures / Number of tonic seizures / Clonic seizure latency period / Tonic seizure latency period: Mean ± SEM; for Clonic seizure latency period / Tonic seizure latency period: no seizure in 30 min recorded as 1800 s; for protective effects against acute epileptic seizures: conclusion in words. More on the design: species or system C57 mice. On the procedure:
Male C57 mice, purchased from SPF (Suzhou) Biotechnology Co., Ltd.
PTZ: a 120 mg/kg PTZ solution (administration volume: 10 mL/kg) was prepared with normal saline as the solvent.
Test compounds: solutions of the test compounds at 3/1/0.3 mg/kg (administration volume: 10 mL/kg) were prepared with Vehicle in section 1.4 as the solvent.
One hour before the test, the experimental animals were transferred into an operation room for acclimation.
The mice were randomly grouped, marked, and weighed, with 10 mice in each group. At 60 min before PTZ administration, the test compounds and Vehicle were separately orally administered.
The PTZ solution was administered subcutaneously before experimental observation, and this time point was recorded as the observation starting point.
Immediately after PTZ administration, the animals were placed in observation boxes and observed for 30 min. The following observations of the animals were recorded:
Clonic seizure: the animal has a generalized myoclonus that lasts for more than 3 s and is accompanied by falling.
Tonic seizure: the limbs are straightened at a 90° angle to the torso.
All metrology data were expressed as mean ± standard error of mean (Mean ± SEM), and the Prism 8.0 statistical software was used for data testing and analysis.

Data set [2] is described as follows: in vivo pharmacokinetic experiment in mice. More on the design: species or system ICR mice. Particulars: mouse, oral intragastric administration 10 mg/kg, single, plasma. On the procedure: Male ICR mice were subjected to oral intragastric administration. The plasma concentrations of the compounds of the present disclosure in the mice were measured, the PK parameters were calculated, and pharmacokinetic evaluation was performed on the compounds of the present disclosure.
Drug preparation: according to the weight of the weighed drug, the preparation volume was calculated; 5% of DMSO and 5% of HS-15 were added sequentially; after the drug was fully dissolved, 90% of a 20% aqueous β-cyclodextrin solution was added, and the mixture was well mixed for later use.
Route of administration: oral intragastric administration, at a dose of 10 mg/kg.
Administration frequency and duration: single administration.
ICR mice were stratified according to body weight and then randomly grouped, with 9 mice per group. The mice were fasted overnight prior to the experiment. The mice were subjected to oral intragastric administration. At 0 h, 0.167 h, 0.333 h, 0.5 h, 1 h, 2 h, 4 h, 6 h, 8 h, 12 h, and 24 h, 50 µL of blood was collected from the fundus vein of each mouse into a sample tube containing heparin sodium as an anticoagulant, and then the tube was placed in wet ice and centrifuged at 4000 r·min^-1 for 10 min. The plasma was separated, and cryopreserved in a refrigerator at -80 °C for testing.
The concentrations of the plasma samples were measured by high-performance liquid chromatography-tandem mass spectrometry (LC-MS/MS). The retention times of the compounds and internal standard, chromatographic acquisitions, and integrals of chromatograms were processed using the software Analyst (AB SCIEX), and statistical analysis of the data was performed using the software Microsoft office. The plasma concentrations were processed using a non-compartmental model of the pharmacokinetic software WinNonlin™ Version 6.3 (Pharsight, Mountain View, CA), and the pharmacokinetic parameters were calculated using a linear log-trapezoidal method. Table 4. Results of pharmacokinetic experiment in mice

Setting [3] is: single concentration 0.1 µM, relative enhancement amplitude of GABAa receptor currents induced by 1 µM GABA.

Sequence of GABAa receptor (α1β2γ2) (P14867 28-456): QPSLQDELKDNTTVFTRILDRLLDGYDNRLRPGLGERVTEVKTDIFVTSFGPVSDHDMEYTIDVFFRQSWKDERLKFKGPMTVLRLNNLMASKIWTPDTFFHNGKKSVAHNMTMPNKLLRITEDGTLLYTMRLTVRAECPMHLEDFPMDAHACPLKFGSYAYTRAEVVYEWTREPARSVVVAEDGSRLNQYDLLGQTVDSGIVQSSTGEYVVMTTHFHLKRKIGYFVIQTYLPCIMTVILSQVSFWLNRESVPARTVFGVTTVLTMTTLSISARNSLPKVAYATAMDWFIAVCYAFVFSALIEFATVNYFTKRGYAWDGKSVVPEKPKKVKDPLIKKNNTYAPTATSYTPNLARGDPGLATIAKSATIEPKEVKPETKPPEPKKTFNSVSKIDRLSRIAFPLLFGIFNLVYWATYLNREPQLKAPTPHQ
Sequence of GABAa receptor (α1β2γ2) (P47870 25-512 limits assumed): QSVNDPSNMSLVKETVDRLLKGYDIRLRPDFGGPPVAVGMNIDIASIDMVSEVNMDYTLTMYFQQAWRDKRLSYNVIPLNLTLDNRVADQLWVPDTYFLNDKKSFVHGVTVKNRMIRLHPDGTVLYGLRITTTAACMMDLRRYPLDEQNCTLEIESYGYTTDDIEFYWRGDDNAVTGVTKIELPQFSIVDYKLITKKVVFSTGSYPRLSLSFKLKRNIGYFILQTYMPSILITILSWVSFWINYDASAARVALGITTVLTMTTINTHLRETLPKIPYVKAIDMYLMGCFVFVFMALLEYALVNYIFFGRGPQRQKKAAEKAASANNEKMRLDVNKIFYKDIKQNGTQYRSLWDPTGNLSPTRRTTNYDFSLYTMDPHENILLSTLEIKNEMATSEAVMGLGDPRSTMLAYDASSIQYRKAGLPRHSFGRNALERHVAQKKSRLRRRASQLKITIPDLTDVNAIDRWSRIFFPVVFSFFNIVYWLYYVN
Sequence of GABAa receptor (α1β2γ2) (P18507 40-475 partner): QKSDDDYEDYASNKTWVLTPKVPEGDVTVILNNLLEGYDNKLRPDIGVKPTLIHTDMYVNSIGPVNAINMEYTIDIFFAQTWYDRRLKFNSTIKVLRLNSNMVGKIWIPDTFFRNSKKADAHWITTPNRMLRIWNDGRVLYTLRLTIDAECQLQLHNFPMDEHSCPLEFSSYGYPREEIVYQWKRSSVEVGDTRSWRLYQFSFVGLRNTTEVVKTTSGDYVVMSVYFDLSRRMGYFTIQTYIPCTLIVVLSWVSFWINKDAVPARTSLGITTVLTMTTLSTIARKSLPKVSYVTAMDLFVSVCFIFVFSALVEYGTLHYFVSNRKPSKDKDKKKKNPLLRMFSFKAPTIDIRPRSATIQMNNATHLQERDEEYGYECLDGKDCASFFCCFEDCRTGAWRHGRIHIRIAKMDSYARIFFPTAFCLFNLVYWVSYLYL

In the case of `C[C@@H]1C[C@H](C(=O)Cn2nccn2)[C@@]2(C)CC[C@H]3[C@@H](CC[C@@H]4C[C@](C)(O)[C@@H](C)C[C@@H]43)[C@H]12` [Example 7, 1-((2S,3S,5R,8R,9R,10S,13S,14S,15R,17S)-3-Hydroxy-2,3,13,15-tetramethylhexadecahydro-1H-cyclopenta[a]phenanthren-17-yl)-2-(2H-1,2,3-triazol-2-yl)ethan-1-one], the activation at 0.1 µM at GABAa receptor (α1β2γ2) (setting [3]) was 794%. In data set [1] (dose 3 mg/kg p.o.), the Survival rate amounted to 100%.

Take `C[C@@H]1C[C@H](C(=O)Cn2ncnn2)[C@@]2(C)CC[C@H]3[C@@H](CC[C@@H]4C[C@H](O)[C@@H](C)C[C@@H]43)[C@H]12` [Example 17, 1-((2S,3S,5R,8R,9R,10S,13S,14S,15R,17S)-3-Hydroxy-2,13,15-trimethylhexadecahydro-1H-cyclopenta[a]phenanthren-17-yl)-2-(2H-tetrazol-2-yl)ethan-1-one]: the activation at 0.1 µM at GABAa receptor (α1β2γ2) (setting [3]) turned out to be 217%.

A word on the AUC(0-t): it is the area under the concentration-time curve up to a stated or last time point. In general, Cmax refers to the highest concentration seen after dosing. The term Tmax denotes the time at which the peak concentration occurs. The term half-life denotes the time in which the quantity being followed falls by half. As to `C[C@H]1C[C@H]2[C@H](CC[C@@H]3[C@@H]2CC[C@]2(C)[C@@H](C(=O)Cn4cc(C#N)cn4)CC[C@@H]32)C[C@]1(C)O` [Example 19, 1-(2-((2S,3S,5R,8R,9R,10S,13S,14S,17S)-3-Hydroxy-2,3,13-trimethylhexadecahydro-1H-cyclopenta[a]phenanthren-17-yl)-2-oxoethyl)-1H-pyrazole-4-carbonitrile], in data set [2] (male, ICR), the AUC(0-t) was 26700 ng·h/mL, the Cmax amounted to 1650 ng/mL, the Tmax stood at 8 h and the half-life is more than 8 h.

Take `C[C@@H]1C[C@H](C(=O)Cn2cncn2)[C@@]2(C)CC[C@H]3[C@@H](CC[C@@H]4C[C@](C)(O)[C@@H](C)C[C@@H]43)[C@H]12` [Example 6, 1-((2S,3S,5R,8R,9R,10S,13S,14S,15R,17S)-3-Hydroxy-2,3,13,15-tetramethylhexadecahydro-1H-cyclopenta[a]phenanthren-17-yl)-2-(1H-1,2,4-triazol-1-yl)ethan-1-one]: at GABAa receptor (α1β2γ2) (setting [3]), the activation at 0.1 µM was 380%. This compound registered a Survival rate in data set [1] (dose 1 mg/kg p.o.) of 90%. Also, in data set [1] (dose 3 mg/kg p.o.), the Survival rate was 100%, the “Number of clonic seizures” value is listed as 0.8±0.2, the “Number of tonic seizures” value is 0.0±0.0 and the “Clonic seizure latency period” value was 1132.4 ± 195.9 s. Moreover, the “Tonic seizure latency period” value in data set [1] (dose 3 mg/kg p.o.) was found to be 1800.0 ± 0.0 s. In addition, the “protective effects against acute epileptic seizures” value (“protective effects” below) in data set [1] (low dose (1 mpk)) is “significant protective effects”.

For the compound `C[C@@H]1C[C@H](C(=O)Cn2nc(C#N)cc2C#N)[C@@]2(C)CC[C@H]3[C@@H](CC[C@@H]4C[C@](C)(O)[C@@H](C)C[C@@H]43)[C@H]12` [Example 5, 1-(2-((2S,3S,5R,8R,9R,10S,13S,14S,15R,17S)-3-Hydroxy-2,3,13,15-tetramethylhexadecahydro-1H-cyclopenta[a]phenanthren-17-yl)-2-oxoethyl)-1H-pyrazole-3,5-dicarbonitrile], the Survival rate in data set [1] (dose 0.3 mg/kg p.o.) is reported as 10%. Moreover, in data set [1] (dose 1 mg/kg p.o.), the Survival rate was determined as 90%. Moreover, in data set [1] (dose 3 mg/kg p.o.), the Survival rate is reported as 100%, the “Number of clonic seizures” value was determined as 0.6±0.2, the “Number of tonic seizures” value was 0.0±0.0 and the “Clonic seizure latency period” value turned out to be 1133.7 ± 192.7 s. Besides, in data set [1] (dose 3 mg/kg p.o.), the “Tonic seizure latency period” value worked out at 1800.0 ± 0.0 s. Besides, in data set [1] (extremely low dose (0.3 mpk)), the “protective effects” value was “partial protective effects”. Besides, in data set [1] (low dose (1 mpk)), the “protective effects” value is listed as “significant protective effects”.

In data set [1] (dose 3 mg/kg p.o.), “1-((2S,3S,5R,8R,9R,108,13S,14S,15R,17S)-3-Hydroxy-2,3,13,15-tetramethylhexadecahydro-1H-cyclopenta[a]phenanthren-17-yl)-2-(1H-1,2,3-triazol-1-yl)ethan-1-one [Example 8]” had a Survival rate of 100%.

For `C[C@@H]1C[C@H](C(=O)Cn2ccc(C(F)(F)F)n2)[C@@]2(C)CC[C@H]3[C@@H](CC[C@@H]4C[C@](C)(O)[C@@H](C)C[C@@H]43)[C@H]12` [Example 4, 1-((2S,3S,5R,8R,9R,10S,13S,14S,15R,17S)-3-Hydroxy-2,3,13,15-tetramethylhexadecahydro-1H. cyclopenta[a]phenanthren-17-yl)-2-(3-(trifluoromethyl)-1H-pyrazol-1-yl)ethan-1-one], the Agonist ratio on GABAa receptor (α1β2γ2) (setting [3]) is 626%.

Consider `C[C@@H]1C[C@H](C(=O)Cn2cnnn2)[C@@]2(C)CC[C@H]3[C@@H](CC[C@@H]4C[C@](C)(O)[C@@H](C)C[C@@H]43)[C@H]12` [Example 10, 1-((2S,3S,5R,8R,9R,10S,13S,14S,15R,17S)-3-Hydroxy-2,3,13,15-tetramethylhexadecahydro-1H-cyclopenta[a]phenanthren-17-yl)-2-(1H-tetrazol-1-yl)ethan-1-one], for which the Survival rate in data set [1] (dose 3 mg/kg p.o.) worked out at 100%.

As usually defined, the EC50 is the concentration that produces a half-maximal response. Take `C[C@@H]1C[C@H](C(=O)Cn2cc(C#N)cn2)[C@@]2(C)CC[C@H]3[C@@H](CC[C@@H]4C[C@](C)(O)[C@@H](C)C[C@@H]43)[C@H]12` [Example 2, 1-(2-((2S,3S,5R,8R,9R,10S,13S,14S,15R,17S)-3-Hydroxy-2,3,13,15-tetramethylhexadecahydro-1H-cyclopenta[a]phenanthren-17-yl)-2-oxoethyl)-1H-pyrazole-4-carbonitrile]: the EC50 at GABAa receptor (α1β2γ2) (positive modulator enhancing GABAa receptor currents induced by 1 µM GABA, read-out: EC50) was determined as 22 nM. Moreover, in data set [2], the AUC(0-t) stood at 16600 ng·h/mL, the Cmax came out at 1240 ng/mL, the Tmax amounted to 4 h and the half-life is 7.38 h.
